In US20220175771A1, “CANCER TREATMENT MODALITIES” (priority 2017, published 2022):

What was measured:
Oral bioavailability = conditions: in vivo
[1] = system: SMARCA2/SMARCA4 dual loss NSCLC cell line xenografts; assay: NSCLC xenograft model in vivo; conditions: ~250 mg/kg body weight

oral bioavailability (Oral bioavailability): orally bioavailable
SMILES: CCN(c1cc(-c2ccc(CN3CCOCC3)cc2)cc(C(=O)NCc2c(C)cc(C)[nH]c2=O)c1C)C1CCOCC1 [Compound 44, tazemetostat]
tumor growth inhibition ([1]; dual loss xenografts compared with SMARCA4 single loss xenografts): more prominent
tumor regression ([1]; in two of the four SMARCA2/SMARCA4 dual loss cell lines): tumor regression was observed
